Data published in PubChem BioAssay AID2060902 (Molecular Pharmacology Branch, DTP, NCI, 2025).

Test system: 485368-065-R3-J5-PDC spheroids with HUVEC/MSC, viability
Test: Anticancer human tumor 485368-065-R3-J5-PDC patient-derived pancreatic carcinoma cell line growth inhibition [RAS]
Details: for IC50: curve of first compound; for viability, T/C: stronger effect = lower value
How it was run: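 Tumour cells grown as complex spheroids with HUVEC endothelial cells and mesenchymal stem cells, treated with RAS pathway inhibitor combinations. Each agent spans half-log steps from near clinical Cmax, or 10 microM where Cmax is unknown.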

[1] = second compound 0.00316 µM, first compound 0.0316 µM
[2] = second compound 0.00316 µM, first compound 0.1 µM
[3] = second compound 0.01 µM, first compound 0.0316 µM
[4] = second compound 0.01 µM, first compound 0.1 µM
[5] = second compound 0.0316 µM, first compound 0.0316 µM
[6] = second compound 0.0316 µM, first compound 0.1 µM
[7] = second compound 0.1 µM, first compound 0.0316 µM
[8] = second compound 0.1 µM, first compound 0.1 µM
[9] = second compound 0.316 µM, first compound 0.0316 µM
[10] = second compound 0.316 µM, first compound 0.1 µM
[11] = second compound 1 µM, first compound 0.0316 µM
[12] = second compound 1 µM, first compound 0.1 µM
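Also: spheroids exposed to agents for seven days before readout.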

## CC(C)n1nc(-c2ccc3oc(N)nc3c2)c2c(N)ncnc21 + C=CC(=O)N1CCN(c2nc(OCC3CCCN3C)nc3c(F)c(-c4nc(N)cc(C)c4C(F)(F)F)c(Cl)cc23)C(C)C1
Second compound 0.00316 µM
  IC50: 14 nM
Second compound 0.01 µM
  IC50: 14.6 nM
Second compound 0.0316 µM
  IC50: 16.9 nM
Second compound 0.1 µM
  IC50: 19.6 nM
Second compound 0.316 µM
  IC50: 16.9 nM
Second compound 1 µM
  IC50: 21.7 nM
Second compound 0.00316 µM, first compound 0.000316 µM
  viability, T/C: 106%
Second compound 0.00316 µM, first compound 0.001 µM
  viability, T/C: 99.4%
Second compound 0.00316 µM, first compound 0.00316 µM
  viability, T/C: 77.1%
Second compound 0.00316 µM, first compound 0.01 µM
  viability, T/C: 56%
[1]
  viability, T/C: 35.6%
[2]
  viability, T/C: 16.1%
Second compound 0.01 µM, first compound 0.000316 µM
  viability, T/C: 104%
Second compound 0.01 µM, first compound 0.001 µM
  viability, T/C: 90.4%
Second compound 0.01 µM, first compound 0.00316 µM
  viability, T/C: 81.4%
Second compound 0.01 µM, first compound 0.01 µM
  viability, T/C: 53.6%
[3]
  viability, T/C: 37.2%
[4]
  viability, T/C: 15.3%
Second compound 0.0316 µM, first compound 0.000316 µM
  viability, T/C: 97.2%
Second compound 0.0316 µM, first compound 0.001 µM
  viability, T/C: 95.8%
Second compound 0.0316 µM, first compound 0.00316 µM
  viability, T/C: 84.7%
Second compound 0.0316 µM, first compound 0.01 µM
  viability, T/C: 60.9%
[5]
  viability, T/C: 36.5%
[6]
  viability, T/C: 16.6%
Second compound 0.1 µM, first compound 0.000316 µM
  viability, T/C: 105%
Second compound 0.1 µM, first compound 0.001 µM
  viability, T/C: 90.9%
Second compound 0.1 µM, first compound 0.00316 µM
  viability, T/C: 96.3%
Second compound 0.1 µM, first compound 0.01 µM
  viability, T/C: 73.9%
[7]
  viability, T/C: 32.8%
[8]
  viability, T/C: 15.8%
Second compound 0.316 µM, first compound 0.000316 µM
  viability, T/C: 105%
Second compound 0.316 µM, first compound 0.001 µM
  viability, T/C: 99.8%
Second compound 0.316 µM, first compound 0.00316 µM
  viability, T/C: 83.3%
Second compound 0.316 µM, first compound 0.01 µM
  viability, T/C: 60.1%
[9]
  viability, T/C: 38%
[10]
  viability, T/C: 19.6%
Second compound 1 µM, first compound 0.000316 µM
  viability, T/C: 100%
Second compound 1 µM, first compound 0.001 µM
  viability, T/C: 87.8%
Second compound 1 µM, first compound 0.00316 µM
  viability, T/C: 84.1%
Second compound 1 µM, first compound 0.01 µM
  viability, T/C: 67%
[11]
  viability, T/C: 41%
[12]
  viability, T/C: 16.1%

## C[C@@H](NC(=O)c1ncnc(N)c1Cl)c1ncc(C(=O)Nc2cc(C(F)(F)F)c(Cl)cn2)s1 + C=CC(=O)N1CCN(c2nc(OCC3CCCN3C)nc3c(F)c(-c4nc(N)cc(C)c4C(F)(F)F)c(Cl)cc23)C(C)C1
Second compound 0.00316 µM
  IC50: > 10000 nM
Second compound 0.01 µM
  IC50: > 10000 nM
Second compound 0.0316 µM
  IC50: > 10000 nM
Second compound 0.1 µM
  IC50: > 10000 nM
Second compound 0.316 µM
  IC50: > 10000 nM
Second compound 1 µM
  IC50: > 10000 nM
[1]
  viability, T/C: 119%
[2]
  viability, T/C: 99.9%
Second compound 0.00316 µM, first compound 0.316 µM
  viability, T/C: 104%
Second compound 0.00316 µM, first compound 1 µM
  viability, T/C: 95%
Second compound 0.00316 µM, first compound 3.16 µM
  viability, T/C: 86.6%
Second compound 0.00316 µM, first compound 10 µM
  viability, T/C: 73.7%
[3]
  viability, T/C: 103%
[4]
  viability, T/C: 105%
Second compound 0.01 µM, first compound 0.316 µM
  viability, T/C: 95.8%
Second compound 0.01 µM, first compound 1 µM
  viability, T/C: 104%
Second compound 0.01 µM, first compound 3.16 µM
  viability, T/C: 92.1%
Second compound 0.01 µM, first compound 10 µM
  viability, T/C: 77%
[5]
  viability, T/C: 107%
[6]
  viability, T/C: 94.8%
Second compound 0.0316 µM, first compound 0.316 µM
  viability, T/C: 104%
Second compound 0.0316 µM, first compound 1 µM
  viability, T/C: 104%
Second compound 0.0316 µM, first compound 3.16 µM
  viability, T/C: 91.8%
Second compound 0.0316 µM, first compound 10 µM
  viability, T/C: 78.6%
[7]
  viability, T/C: 108%
[8]
  viability, T/C: 103%
Second compound 0.1 µM, first compound 0.316 µM
  viability, T/C: 107%
Second compound 0.1 µM, first compound 1 µM
  viability, T/C: 103%
Second compound 0.1 µM, first compound 3.16 µM
  viability, T/C: 94.6%
Second compound 0.1 µM, first compound 10 µM
  viability, T/C: 77%
[9]
  viability, T/C: 104%
[10]
  viability, T/C: 106%
Second compound 0.316 µM, first compound 0.316 µM
  viability, T/C: 107%
Second compound 0.316 µM, first compound 1 µM
  viability, T/C: 102%
Second compound 0.316 µM, first compound 3.16 µM
  viability, T/C: 98.6%
Second compound 0.316 µM, first compound 10 µM
  viability, T/C: 80.2%
[11]
  viability, T/C: 105%
[12]
  viability, T/C: 111%
Second compound 1 µM, first compound 0.316 µM
  viability, T/C: 94.7%
Second compound 1 µM, first compound 1 µM
  viability, T/C: 104%
Second compound 1 µM, first compound 3.16 µM
  viability, T/C: 96.5%
Second compound 1 µM, first compound 10 µM
  viability, T/C: 81.4%
